Source: PubChem BioAssay AID2060615 (Molecular Pharmacology Branch, DTP, NCI, 2025)
pIC50: −log10 of the molar value. Where “and” joins values, the source holds several entries; their conditions need not be identical. Equal entries are not always repeated. One block for each molecule: values may come before it.

System: 496974-208-R-J2-PDC complex spheroids, growth % test/control
Assay: Anticancer human tumor 496974-208-R-J2-PDC patient-derived pancreatic carcinoma cell line growth inhibition [CLK]
Settings: for viability, T/C: stronger effect = lower value
How it was run: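 Multi-cell-type spheroids combined patient-derived tumor cells with HUVEC endothelial cells and human mesenchymal stem cells. Paired agents were dosed in half-log steps down from about clinical Cmax, or from 10 microM where Cmax was unknown.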

[1] = curve of first compound, second compound 0.0316 µM
[2] = curve of first compound, second compound 0.1 µM
[3] = curve of first compound, second compound 0.316 µM
[4] = curve of first compound, second compound 1 µM
[5] = curve of first compound, second compound 3.16 µM
[6] = curve of first compound, second compound 10 µM
[7] = second compound 0.0316 µM, first compound 0.0316 µM
[8] = second compound 0.0316 µM, first compound 0.1 µM
[9] = second compound 0.0316 µM, first compound 0.316 µM
[10] = second compound 0.0316 µM, first compound 1 µM
[11] = second compound 0.0316 µM, first compound 3.16 µM
[12] = second compound 0.0316 µM, first compound 10 µM
[13] = second compound 0.1 µM, first compound 0.0316 µM
[14] = second compound 0.1 µM, first compound 0.1 µM
[15] = second compound 0.1 µM, first compound 0.316 µM
[16] = second compound 0.1 µM, first compound 1 µM
[17] = second compound 0.1 µM, first compound 3.16 µM
[18] = second compound 0.1 µM, first compound 10 µM
[19] = second compound 0.316 µM, first compound 0.0316 µM
[20] = second compound 0.316 µM, first compound 0.1 µM
[21] = second compound 0.316 µM, first compound 0.316 µM
[22] = second compound 0.316 µM, first compound 1 µM
[23] = second compound 0.316 µM, first compound 3.16 µM
[24] = second compound 0.316 µM, first compound 10 µM
[25] = second compound 1 µM, first compound 0.0316 µM
[26] = second compound 1 µM, first compound 0.1 µM
[27] = second compound 1 µM, first compound 0.316 µM
[28] = second compound 1 µM, first compound 1 µM
[29] = second compound 1 µM, first compound 3.16 µM
[30] = second compound 1 µM, first compound 10 µM
[31] = second compound 3.16 µM, first compound 0.0316 µM
[32] = second compound 3.16 µM, first compound 0.1 µM
[33] = second compound 3.16 µM, first compound 0.316 µM
[34] = second compound 3.16 µM, first compound 1 µM
[35] = second compound 3.16 µM, first compound 3.16 µM
[36] = second compound 3.16 µM, first compound 10 µM
[37] = second compound 10 µM, first compound 0.0316 µM
[38] = second compound 10 µM, first compound 0.1 µM
[39] = second compound 10 µM, first compound 0.316 µM
[40] = second compound 10 µM, first compound 1 µM
[41] = second compound 10 µM, first compound 3.16 µM
[42] = second compound 10 µM, first compound 10 µM
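Note: spheroids exposed to the drugs for 7 days before readout.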
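Throughout, for viability, T/C: 100% = DMSO vehicle control wells.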

SMILES: CCCS(=O)(=O)Nc1ccc(F)c(C(=O)c2c[nH]c3ncc(-c4ccc(Cl)cc4)cc23)c1F + CN1CCN(c2cc(C(=O)Nc3cc4cc(-c5cnn(C)c5)ccc4cn3)ccn2)CC1
- pIC50 [1]: 5.06
- pIC50 [2]: 5.06
- pIC50 [3]: > 7.50
- pIC50 [4]: > 7.50
- pIC50 [5]: > 7.50
- pIC50 [6]: > 7.50
- viability, T/C [7]: 100%
- viability, T/C [8]: 101%
- viability, T/C [9]: 104%
- viability, T/C [10]: 112%
- viability, T/C [11]: 103%
- viability, T/C [12]: 42.9%
- viability, T/C [13]: 79.8%
- viability, T/C [14]: 92.3%
- viability, T/C [15]: 95.8%
- viability, T/C [16]: 95.3%
- viability, T/C [17]: 82.8%
- viability, T/C [18]: 44.8%
- viability, T/C [19]: 7.31%
- viability, T/C [20]: 7.89%
- viability, T/C [21]: 8.26%
- viability, T/C [22]: 12.3%
- viability, T/C [23]: 13.7%
- viability, T/C [24]: 12.7%
- viability, T/C [25]: 0.4%
- viability, T/C [26]: 1.65%
- viability, T/C [27]: 0.49%
- viability, T/C [28]: 0.54%
- viability, T/C [29]: 0.67%
- viability, T/C [30]: 1.12%
- viability, T/C [31]: 0.36%
- viability, T/C [32]: 0.59%
- viability, T/C [33]: 1.11%
- viability, T/C [34]: 0.45%
- viability, T/C [35]: 1.82%
- viability, T/C [36]: 1.33%
- viability, T/C [37]: 0.23%
- viability, T/C [38]: 0.7%
- viability, T/C [39]: 0.31%
- viability, T/C [40]: 1.08%
- viability, T/C [41]: 1.52%
- viability, T/C [42]: 0.99%

- pIC50 (curve of compound): 6.71 and 6.74
SMILES: CC(Nc1ccc2c(c1)OCCn1cc(N3C(=O)OCC3C(F)F)nc1-2)C(N)=O (stereo unspecified)
- viability, T/C (compound 0.0316 µM): 89.2% and 89.5%
- viability, T/C (compound 0.1 µM): 65.6% and 63.4%
- viability, T/C (compound 0.316 µM): 39.2% and 36.6%
- viability, T/C (compound 1 µM): 18.8% and 22.9%
- viability, T/C (compound 3.16 µM): 13.1% and 14.9%
- viability, T/C (compound 10 µM): 7.32% and 10.9%

- pIC50 [1]: < 5.00
- pIC50 [2]: < 5.00
- pIC50 [3]: < 5.00
- pIC50 [4]: 5.20
- pIC50 [5]: < 5.00
- pIC50 [6]: 5.92
SMILES: O=c1[nH]cc(F)c(=O)[nH]1 + CNC(=O)c1ccc(Nc2nc(OC3CCCC3)c3c(-c4ccc5nc(C)oc5c4)c[nH]c3n2)c(OC)c1
- viability, T/C [7]: 102%
- viability, T/C [8]: 88.6%
- viability, T/C [9]: 92.7%
- viability, T/C [10]: 85.3%
- viability, T/C [11]: 72.2%
- viability, T/C [12]: 61.8%
- viability, T/C [13]: 74.8%
- viability, T/C [14]: 83.1%
- viability, T/C [15]: 76.2%
- viability, T/C [16]: 81.8%
- viability, T/C [17]: 70.7%
- viability, T/C [18]: 58.7%
- viability, T/C [19]: 78.5%
- viability, T/C [20]: 76.4%
- viability, T/C [21]: 68.2%
- viability, T/C [22]: 70.4%
- viability, T/C [23]: 67.1%
- viability, T/C [24]: 54.6%
- viability, T/C [25]: 73.7%
- viability, T/C [26]: 67.3%
- viability, T/C [27]: 71.5%
- viability, T/C [28]: 69%
- viability, T/C [29]: 56.9%
- viability, T/C [30]: 45.6%
- viability, T/C [31]: 63.5%
- viability, T/C [32]: 58.6%
- viability, T/C [33]: 64%
- viability, T/C [34]: 54%
- viability, T/C [35]: 55.2%
- viability, T/C [36]: 48.5%
- viability, T/C [37]: 51.8%
- viability, T/C [38]: 58.5%
- viability, T/C [39]: 54.2%
- viability, T/C [40]: 51.8%
- viability, T/C [41]: 41.3%
- viability, T/C [42]: 39%
